Experimental data published in patent publication US9868748B2, “Thiazolopyrrolidine inhibitors of ROR- γ” (Vitae Pharmaceuticals, Inc., priority 2013, dated 2018).
Read-outs that look alike come from different tables or passages of the source.

Experiments:
[1] = target: full-length RORγt in Jurkat cells (Homo sapiens (Human), UniProt P51449); assay: RORγt 5xRORE Assay in Jurkat Cells (Assay 2); format: cell-based; conditions: Nanoluc luciferase reporter, 16-18 hrs
Outline: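 Inverse agonist activity was read as NanoGlo luminescence from conditioned medium after 16–18 h compound exposure (37 °C, 0.1% DMSO final). The cells were Jurkat, transiently transfected with RORγt and a secNluc reporter carrying five RORE repeats, seeded 80,000 per well in delipidated-serum RPMI.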

[2] = target: recombinant RORγ Ligand Binding Domain (LBD) protein (Homo sapiens (Human), UniProt P51449); assay: Radio-Ligand RORγ Binding Assay (Assay 1); conditions: competition with 25-hydroxy [26,27-3H]-cholesterol, SPA, read-out: RORγ Binding Ki Range*
recombinant RORγ Ligand Binding Domain (LBD) protein, sequence (P51449 269-508): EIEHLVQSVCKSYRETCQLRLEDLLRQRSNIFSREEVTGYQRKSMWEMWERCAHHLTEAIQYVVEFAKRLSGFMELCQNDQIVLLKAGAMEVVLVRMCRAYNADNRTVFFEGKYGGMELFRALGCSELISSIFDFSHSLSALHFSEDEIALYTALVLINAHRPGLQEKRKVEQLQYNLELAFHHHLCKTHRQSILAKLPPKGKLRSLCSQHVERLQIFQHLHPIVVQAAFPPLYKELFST
Outline: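 Recombinant human RORγ ligand binding domain (6×His-GST fusion, 24 nM stock) competed with tritiated 25-hydroxycholesterol (8.6 nM stock) in HEPES buffer pH 7.4 with detergents and DTT; poly-Lys YSi SPA beads, room temperature, tritium SPA signal. Four-parameter IC50 from semi-log dilutions, normalised to DMSO and 10 μM T0901317, then Ki via KD equation.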

[3] = Table 8, read-out: RORγt5X IC50 Range*
[4] = Table 9, read-out: RORγt5X IC50 Range*

full-length RORγt in Jurkat cells, sequence (P51449 other isoform, or with tags, fused parts or gaps): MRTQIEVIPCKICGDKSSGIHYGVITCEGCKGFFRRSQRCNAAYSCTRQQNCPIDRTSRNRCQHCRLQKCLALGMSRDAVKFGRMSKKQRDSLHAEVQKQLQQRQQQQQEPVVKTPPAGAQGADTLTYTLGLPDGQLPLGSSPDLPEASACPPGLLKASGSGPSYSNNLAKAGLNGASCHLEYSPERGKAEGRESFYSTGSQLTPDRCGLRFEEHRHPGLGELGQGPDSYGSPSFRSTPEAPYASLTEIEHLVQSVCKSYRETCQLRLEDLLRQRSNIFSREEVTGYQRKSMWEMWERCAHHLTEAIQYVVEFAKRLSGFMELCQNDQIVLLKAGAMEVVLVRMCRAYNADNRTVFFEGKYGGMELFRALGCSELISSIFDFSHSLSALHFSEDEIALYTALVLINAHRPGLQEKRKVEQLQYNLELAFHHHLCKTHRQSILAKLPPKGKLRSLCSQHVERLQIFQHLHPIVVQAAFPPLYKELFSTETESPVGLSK

Row | SMILES | IC50 [1, 3] [µM] | Ki ([2]; Table 8) [µM] | IC50 [1, 4] [µM] | Ki ([2]; Table 9) [µM]
1 | CCS(=O)(=O)c1ccc(CC(=O)Nc2nc3c(s2)CN([C@@H](C)c2ccc(C(F)(F)F)cc2)[C@H]3C(C)C)cc1 [I-A35] | < 0.1 | < 0.1 | – | –
2 | CCS(=O)(=O)c1ccc(CC(=O)Nc2nc3c(s2)CN(Cc2ccc(C(F)(F)F)c(OC)n2)[C@H]3C(C)C)cc1 [I-A31] | < 0.1 | < 0.1 | – | –
3 | CCS(=O)(=O)c1ccc(CC(=O)Nc2nc3c(s2)CN(Cc2ccc(C(F)(F)F)cc2C#N)[C@H]3C(C)C)cc1 [I-A45] | < 0.1 | < 0.1 | – | –
4 | CCS(=O)(=O)c1ccc(CC(=O)Nc2nc3c(s2)CN([C@H](C)c2ccc(Br)cc2F)[C@H]3C(C)C)cc1 [I-A24] | < 0.1 | < 0.1 | – | –
5 | CC(C)[C@H]1c2nc(C(=O)NCc3ccc(S(C)(=O)=O)cc3)sc2CN1Cc1ccc(OC(F)F)cc1 [I-K2] | < 0.1 | < 0.1 | – | –
6 | CC(C)[C@@H]1c2nc(NC(=O)Cc3ccc(S(C)(=O)=O)cc3)sc2CN1Cc1cccc(Cl)c1 | – | – | > 1 | < 0.1
7 | CCS(=O)(=O)c1ccc(CC(=O)Nc2nc3c(s2)CN([C@H](C)c2ccc(C(F)(F)F)cc2)[C@H]3C(C)C)cc1 [I-A34] | < 0.1 | < 0.1 | – | –
8 | CCS(=O)(=O)c1ccc(CC(=O)Nc2nc3c(s2)CN(CCc2ccccc2)[C@@H]3C(C)C)cc1 | – | – | > 1 | < 0.1
9 | CC[C@H](C)[C@H]1c2nc(NC(=O)Cc3ccc(S(C)(=O)=O)cc3)sc2CN1Cc1ccc(Cl)cc1 [I-H1, N—((S)-4-((S)-sec-butyl)-5-(4-chlorobenzyl)-5,6-dihydro-4H-pyrrolo[3,4-d]thiazol-2-yl)-2-(4-(methylsulfonyl)phenyl)acetamide] | < 0.1 | < 0.1 | – | –
10 | CCS(=O)(=O)c1ccc(CC(=O)Nc2nc3c(s2)CN(Cc2cccc(C(F)(F)F)c2)[C@H]3C(C)C)cc1 [I-A8] | > 1 | < 0.1 | – | –
11 | CC[C@@H]1c2nc(NC(=O)Cc3ccc(S(C)(=O)=O)cc3)sc2CN1Cc1cccc(C(F)(F)F)c1 | – | – | > 1 | < 0.1
12 | CCS(=O)(=O)c1ccc(CC(=O)Nc2nc3c(s2)CN(Cc2cc(OC(F)(F)F)ccc2F)[C@@H]3C(C)C)cc1 | – | – | > 1 | < 0.1
13 | CCS(=O)(=O)c1ccc(CC(=O)Nc2nc3c(s2)CN(C[C@H]2CCCOC2)[C@H]3C(C)C)cc1 (single isomer, unassigned) | – | – | > 1 | < 0.1
14 | CCS(=O)(=O)c1ccc(CC(=O)Nc2nc3c(s2)CN(Cc2ccc(C)cc2)[C@H]3C(C)C)cc1 [I-A64] | < 0.1 | < 0.1 | – | –
15 | CCS(=O)(=O)c1ccc(CC(=O)Nc2nc3c(s2)CN(C[C@@H]2CC[C@H](C(F)(F)F)OC2)[C@H]3C(C)C)cc1 (relative stereo) | – | – | > 1 | < 0.1
16 | CCS(=O)(=O)c1ccc(CC(=O)Nc2nc3c(s2)CN(C[C@@H]2CCCCO2)[C@H]3C(C)C)cc1 (relative stereo) | – | – | > 1 | < 0.1
17 | CCS(=O)(=O)c1ccc(CC(=O)Nc2nc3c(s2)CN(C(C)c2cccc(C(F)(F)F)c2)[C@@H]3C(C)C)cc1 (stereo partly drawn) | – | – | > 1 | < 0.1
18 | CCS(=O)(=O)c1ccc(CC(=O)Nc2nc3c(s2)CN(Cc2ccc(C#N)cc2)[C@H]3C(C)C)cc1 [I-A15] | < 0.1 | < 0.1 | – | –
19 | CCS(=O)(=O)c1ccc(CC(=O)Nc2nc3c(s2)CN(C[C@H]2CC[C@H](C(=O)OC)CC2)[C@H]3C(C)C)cc1 [I-A44] | < 0.1 | < 0.1 | – | –
20 | CCS(=O)(=O)c1ccc(CC(=O)Nc2nc3c(s2)CN(C[C@H]2CCCCO2)[C@H]3C(C)C)cc1 (relative stereo) | – | – | > 1 | < 0.1
21 | CCS(=O)(=O)c1ccc(CC(=O)Nc2nc3c(s2)CN(Cc2ccc(F)cc2)[C@H]3C(C)C)cc1 [I-A14] | > 1 | < 0.1 | – | –
22 | CCS(=O)(=O)c1ccc(CC(=O)Nc2nc3c(s2)CN(CC2CCn4c(C)nnc4C2)[C@H]3C(C)C)cc1 (stereo partly drawn) | – | – | > 1 | 0.1 to 1
23 | CCS(=O)(=O)c1ccc(CC(=O)Nc2nc3c(s2)CN(C[C@H]2CC[C@@H](C(=O)OC)CC2)[C@H]3C(C)C)cc1 (single isomer, unassigned) | – | – | > 1 | < 0.1
24 | CCS(=O)(=O)c1ccc(CC(=O)Nc2nc3c(s2)CN(Cc2ccc(C4CC4)cc2)[C@H]3C(C)C)cc1 [I-A59] | < 0.1 | < 0.1 | – | –
25 | CCS(=O)(=O)c1ccc(CC(=O)Nc2nc3c(s2)CN([C@H](C)Cc2ccc(F)cc2)[C@@H]3C(C)C)cc1 | – | – | > 1 | < 0.1
26 | CC(C)[C@H]1c2nc(NC(=O)Cc3ccc(S(C)(=O)=O)cc3)sc2CN1Cc1ccc(Cl)cc1 [I-B1, (S)—N-(5-(4-chlorobenzyl)-4-isopropyl-5,6-dihydro-4H-pyrrolo[3,4-d]thiazol-2-yl)-2-(4-(methylsulfonyl)phenyl)acetamide] | < 0.1 | < 0.1 | – | –

Further lines, results first:

Row | IC50 [1, 3] [µM] | Ki ([2]; Table 8) [µM] | IC50 [1, 4] [µM] | Ki ([2]; Table 9) [µM] | SMILES
27 | – | – | 0.1 to 1 | 0.1 to 1 | CC(C)[C@H]1c2nc(NC(=O)Cc3ccc(S(C)(=O)=O)cc3)sc2CN1Cc1ccc(C(F)(F)F)nn1
28 | – | – | 0.1 to 1 | < 0.1 | CCS(=O)(=O)c1cnc(CNC(=O)c2nc3c(s2)CN(Cc2ccc(C#N)cc2)[C@H]3C(C)C)nc1
29 | – | – | 0.1 to 1 | < 0.1 | CCS(=O)(=O)c1cnc(CC(=O)Nc2nc3c(s2)CN(Cc2ccc(-c4nnn(C)n4)cc2)[C@H]3C(C)C)nc1
30 | – | – | < 0.1 | < 0.1 | CCS(=O)(=O)c1ccc(CC(=O)Nc2nc3c(s2)CN(Cc2ccc(C(F)(F)F)nc2)C3C(C)C)nc1 (stereo not drawn)
31 | – | – | > 1 | < 0.1 | CCS(=O)(=O)c1ccc(CC(=O)Nc2nc3c(s2)CN([C@@H](C)Cc2ccccc2C(F)(F)F)[C@@H]3C(C)C)cc1
32 | – | – | 0.1 to 1 | 0.1 to 1 | CCS(=O)(=O)c1ccc(CC(=O)Nc2nc3c(s2)CN(Cc2ccc(C#N)cc2)[C@@H]3C(C)C)cc1
33 | – | – | 0.1 to 1 | < 0.1 | CC[C@H]1c2nc(NC(=O)Cc3ccc(CO)cc3)sc2CN1Cc1ccc(Cl)cc1
34 | – | – | < 0.1 | < 0.1 | CCS(=O)(=O)c1ccc(CC(=O)Nc2nc3c(s2)CN(Cc2ccc(Cl)cc2)[C@H]3C(C)C)c(C#N)c1
35 | – | – | > 1 | < 0.1 | CCOC(=O)c1cnc(N2Cc3sc(NC(=O)Cc4ccc(S(=O)(=O)CC)cc4)nc3[C@@H]2C(C)C)nc1C(F)(F)F
36 | – | – | 0.1 to 1 | < 0.1 | CCS(=O)(=O)c1ccc(CC(=O)Sc2nc3c(s2)CN(Cc2ccc(Cl)cc2)C3(C)C)cc1
37 | – | – | 0.1 to 1 | < 0.1 | CC(C)[C@H]1c2nc(NC(=O)Cc3ccc(S(C)(=O)=O)cc3)sc2CN1[C@@H](C)c1ccc(Cl)cn1 (single isomer, unassigned)
38 | – | – | 0.1 to 1 | < 0.1 | CCS(=O)(=O)c1cnc(CC(=O)Nc2nc3c(s2)CN(Cc2ccc(C#N)cc2)[C@H]3C(C)C)nc1
39 | – | – | 0.1 to 1 | < 0.1 | Cc1cc(CN2Cc3sc(NC(=O)Cc4ccc(C#N)cc4)nc3[C@@H]2C(C)C)ccc1C#N
40 | – | – | > 1 | < 0.1 | CC[C@@H]1c2nc(NC(=O)Cc3ccc(S(=O)(=O)CC)cc3)sc2CN1Cc1ccc(Cl)cc1
41 | – | – | 0.1 to 1 | < 0.1 | CC(C)[C@H]1c2nc(NC(=O)Cc3ccc(S(C)(=O)=O)cc3)sc2CN1Cc1ccn(C(F)F)c(=O)c1
42 | – | – | 0.1 to 1 | 0.1 to 1 | CC[C@@H](C)[C@@H]1c2nc(NC(=O)Cc3ccc(S(C)(=O)=O)cc3)sc2CN1Cc1ccc(OC(F)(F)F)cc1
43 | – | – | 0.1 to 1 | < 0.1 | CC[C@H]1c2nc(NC(=O)Cc3ccc(S(=O)(=O)CC)cc3)sc2CN1Cc1ccc2nc[nH]c2c1
44 | – | – | 0.1 to 1 | 0.1 to 1 | CCS(=O)(=O)c1ccc(CNC(=O)c2nc3c(s2)CN(C[C@H]2CC[C@H](C(F)(F)F)CC2)[C@H]3C(C)C)nc1
45 | – | – | 0.1 to 1 | < 0.1 | CCS(=O)(=O)c1ccc(CC(=O)Nc2nc3c(s2)CN(Cc2ccc(CO)cc2)[C@H]3C(C)C)cc1
46 | – | – | < 0.1 | < 0.1 | CCS(=O)(=O)c1ccc(CC(=O)Nc2nc3c(s2)CN(C[C@H]2CC[C@](O)(C(F)(F)F)CC2)[C@H]3C(C)C)cc1 (single isomer, unassigned)
47 | – | – | < 0.1 | < 0.1 | CCS(=O)(=O)c1ccc(CC(=O)Nc2nc3c(s2)CN(C[C@H]2CC[C@@](C)(C#N)CC2)[C@H]3C(C)C)cc1 (single isomer, unassigned)
48 | – | – | 0.1 to 1 | 0.1 to 1 | CC(C)[C@@H]1c2nc(NC(=O)Cc3ccc(S(C)(=O)=O)cc3)sc2CN1Cc1ccc(Cl)cc1
49 | – | – | 0.1 to 1 | < 0.1 | CC(C)[C@H]1c2nc(NC(=O)Cc3ccc(C#N)cc3)sc2CN1Cc1ccc(C#N)c(Cl)c1
50 | – | – | < 0.1 | < 0.1 | CCS(=O)(=O)c1ccc(CC(=O)Nc2nc3c(s2)CN([C@H]2COc4cc(Cl)ccc42)[C@H]3C(C)C)cc1 (relative stereo)
51 | – | – | 0.1 to 1 | < 0.1 | CC(C)[C@H]1c2nc(NC(=O)Cc3ccc(C#N)cc3)sc2CN1Cc1ccc(C#N)cc1
52 | – | – | 0.1 to 1 | < 0.1 | CC(C)[C@H]1c2nc(NC(=O)Cc3ccc(S(C)(=O)=O)cc3)sc2CN1[C@H](C)c1ccc(C#N)cc1Cl
53 | – | – | 0.1 to 1 | < 0.1 | CC[C@H]1c2nc(NC(=O)Cc3ccc(S(=O)(=O)C(F)F)cc3)sc2CN1Cc1ccc(Cl)cc1
54 | – | – | 0.1 to 1 | 0.1 to 1 | CCS(=O)(=O)c1ccc(CC(=O)Nc2nc3c(s2)CN(C[C@H]2CC[C@H](C(F)(F)F)NC2)[C@H]3C(C)C)nc1 (single isomer, unassigned) [drawing 211]
